This note sets out measurements from patent publication US8329902B2, “Optically pure dihydropyrimidine compounds and their uses for the preparation of a medicament for treatment and prevention of viral diseases” (Beijing Molecule Science And Technology Co., Ltd., priority 2006, dated 2012).

The test system of one series is HBV DNA. Put plainly: Antiviral activity: inhibition of HBV DNA in supernatant of HepG 2.2.15 cells (dot blot hybridization). The series is classed as cell-based. The settings on record: Hepatitis B virus, HepG2.2.15, 192 h, 8 days incubation, 50% reduction of type B hepatitis-specific DNA band. The protocol: The antiviral effection of the compound of the present invention is determined according to the methods described by Sells, et al in (M. A. Sells M. L. Chen G. Proc. Natl. Acad. Sci. 1987, 84, 1005-1009) and Korba, et al (B. E. Korba, J. L. Gerin Antiviral Research 1992, 19, 55-70).
(§1) The antiviral test was carried out in a 96-cell microtiter plate. The first column of the plate only contained a culture medium for growth and HepG 2.2.15 cells, as a control. First, a stock solution (50 mmol) of a test compound was dissolved in DMSO, and further diluted with a culture medium for growth for HepG 2.2.15 cells. Usually, the compound of the present invention was transferred by suction at a test concentration of 100 μg/ml (the first test concentration) to each cell of the second column of the microtiter plate, and then diluted with the culture medium for growth plus 2% fetal bovine serum (25 μL), by 2 times once, up to […] at the maximum.
(§2) Then, 225 μL of a suspension of HepG 2.2.15 cells (5×10^4 cells/ml) in the culture medium fro growth plus 2% fetal bovine serum was added to each pore of the 96-cell microtiter plate.
(§3) The test mixture was incubated under the conditions of 37° C., 5% CO2 for 4 days. Then, the supernatant was removed by suction, and to each pore 225 μL of a new-prepared culture medium was added. Again, the compound of the present invention was added by a solution of 25 μL. The obtained mixture was further incubated for 4 days.
Thereafter, the supernatant was collected, and sucked in vacuum to a 96-cell dot blot chamber covered by nylon film (used in accordance with the directions for use given by the manufacturer).
After the supernatant was transferred onto the nylon film of the dot blot device (as described above), the supernatant of HepG 2.2.15 cells was denaturated (1.5 M NaCl/0.5 M NaOH), neutralized (3 M NaCl/0.5 M Tris. HCl, pH 7.5) and washed (2×SSC). Then, the filter film was kept at 120° C. for 2-4 hours, whereby DNA was baked on the filter film.
Usually, viral DNA of HepG 2.2.15 cells treated on the nylon filter film was detected by using a non-radioactive digoxigenin labelled type B hepatitis-specific DNA probe. Wherein, each time the probe was labelled with digoxigenin, purified and hybridized according to the directions for use given by the manufacturer.
Briefly, pre-hybridization and hybridization were conducted with 5×SSC, 1× blocking agent, 0.1% N-lauroyl sarcosine, 0.02% SDS and 100 μg sperm DNA of black carp. After pre-hybridization at 60° C. for 30 min, a specific hybridization (at 60° C. for 14 hr) was conducted with 20-40 ng/ml digoxigenin labelled denaturated I-BV specific DNA. Then, the filter film was washed, followed by digoxigenin antibody detection for HBV DNA. […]

Another series relates to HepG 2.2.15 cells. Put plainly: Cytotoxicity in HepG 2.2.15 cells (cell morphology by microscope after 8 days, Reed & Muench). Type of series: cell-based. The settings on record: pathological change of cells after 8 days. The protocol:
as §1, §2, §3
Prior to collection of the supernatant for determination of the antiviral effect, the cytotoxicity variation of HepG 2.2.15 cells was investigated by using optical microscopic technique or biochemical test method (e.g., Alamar Blue dyeing or Trypan Blue dyeing).
The substance-induced change in cytotoxicity in HepG 2.2.15 cells or change in inhibition of the cells could be determined by using, e.g., optical microscopic technique, and expressed by the change of cell morphology. Such substance-induced change, e.g., cell lysis, vacuolus formation or change in cell morphology, in HepG 2.2.15 cells was apparent as compared with the untreated cells. Taking the observed pathological change of cells as index, the pathological change of cells was observed under microscope after 8 days, a complete destroy being indicated as 4; 75% being indicated as 3; 50% being indicated as 2; 25% being indicated as 1; and no pathological change being indicated as 0. The average extents of pathological change of cells and the suppression percentages at various concentrations were calculated. According to Reed & Muench method, a half toxic concentration (TC50) and a maximum non-toxic concentration (TC0) were calculated.
TC50 refers to the concentration of the compound of the present invention when 50% of cells have a similar morphology to the corresponding cells as a control.

Broadly, the IC50 is the concentration that gives 50% inhibition. Take `CCOC(=O)C1=C(C)NC(c2nccs2)=N[C@H]1c1ccc(F)cc1Cl` [Example 2, (R)-4-(2-chloro-4-fluorophenyl)-6-methyl-2-(2-thiazolyl)-1,4-dihydropyrimidin-5-ethylcarboxylate]: the half-inhibitory concentration (IC50) in the series with HBV DNA is below 800 nM. In the series on HepG 2.2.15 cells, this compound had a TD50 above 62.9 µM.
The like results for `CCOC(=O)C1=C(C)NC(c2cncs2)=N[C@H]1c1ccc(F)cc1Cl` [Example 7, (R)-4-(2-chloro-4-fluorophenyl)-6-methyl-2-(5-thiazolyl)-1,4-dihydropyrimidin-5-ethylcarboxylate] were, in that order, 1800 nM and above 12.5 µM.
In the case of `CC1=C(C(=O)OCC(F)(F)F)[C@H](c2ccc(F)cc2Cl)N=C(c2nccs2)N1` [Example 3, (R)-4-(2-chloro-4-fluorophenyl)-6-methyl-2-(2-thiazolyl)-1,4-dihydropyrimidin-5-trifluoroethylcarboxylate], in the series on HBV DNA, the IC50 stood at 5100 nM. In the series on HepG 2.2.15 cells, this compound displayed a TD50 of 37.4 µM.
A word on the melting point: it is the temperature of the solid-liquid transition. `CCOC(=O)C1=C(C)NC(c2c(F)cc(F)cc2F)=N[C@H]1c1ccc(F)cc1Cl` [Example 5, (R)-4-(2-chloro-4-fluorophenyl)-6-methyl-2-(2,4,6-trifluorophenyl)-1,4-dihydropyrimidin-5-ethylcarboxylate]: the melting point fell in the range of 162 to 165 °C. In addition, the 50% inhibitory concentration (IC50) in the series on HBV DNA turned out to be 1300 nM. This compound also showed a TD50 with HepG 2.2.15 cells of 13.8 µM.
As for `CC1=C(C(=O)N[C@H](C)c2ccccc2)[C@H](c2ccc(F)cc2Cl)N=C(c2nccs2)N1`, the melting point lay in the range of 224 to 226 °C.
